From ChEMBL document CHEMBL1130700, “Antiinflammatory 4,5-diarylimidazoles as selective cyclooxygenase inhibitors” (1998)

Assays:
Type in all cases: functional
Mus musculus [1] = experiment: In vivo inhibitory activity by mouse air-pouch assay at dose 2 MPK was determined.
Mus musculus [2] = organism: Mus musculus; experiment: Effective dose was evaluated by mouse air-pouch assay.
Rattus norvegicus = organism: Rattus norvegicus; experiment: Effective dose was evaluated by rat adjuvant arthritis model.
Mus musculus [3] = experiment: In vivo inhibitory activity by mouse air-pouch assay at dose 2 mg/Kg was determined.

In the case of `CS(=O)(=O)c1ccc(-c2[nH]c(C(F)(F)F)nc2-c2cccc(Cl)c2)cc1`, the inhibition in vivo at 2 mg/kg (Mus musculus [1]) is reported as 98%.
For `CS(=O)(=O)c1ccc(-c2[nH]c(C(F)(F)F)nc2NS(=O)(=O)c2ccc(F)cc2)cc1`, the inhibition in vivo at 2 mg/kg (Mus musculus [1]) was 33%.
`CS(=O)(=O)c1ccc(-c2[nH]c(C(F)(F)F)nc2-c2ccsc2)cc1` gave an inhibition in vivo at 2 mg/kg (Mus musculus [1]) of 0%.
For `CS(=O)(=O)c1ccc(-c2[nH]c(C(F)(F)F)nc2-c2ccc(F)cc2F)cc1`, the inhibition in vivo at 2 mg/kg (Mus musculus [1]) was 100%.
In the case of `CS(=O)(=O)c1ccc(-c2[nH]c(C(F)(F)F)nc2-c2cccs2)cc1`, the inhibition in vivo at 2 mg/kg (Mus musculus [1]) is reported as 79%.
Work on `Cc1cccc(-c2[nH]c(C(F)(F)F)nc2-c2ccc(S(C)(=O)=O)cc2)c1` yielded an inhibition in vivo at 2 mg/kg (Mus musculus [1]) of 29%.
Compound `CS(=O)(=O)c1ccc(-c2[nH]c(C(F)(F)F)nc2-c2ccccc2Cl)cc1` has an inhibition in vivo at 2 mg/kg (Mus musculus [1]) of 86%.
`CS(=O)(=O)c1ccc(-c2[nH]c(C(F)(F)F)nc2-c2cccnc2)cc1` gave an inhibition in vivo at 2 mg/kg (Mus musculus [1]) of 29%.
`CS(=O)(=O)c1ccc(-c2[nH]c(C(F)(F)F)nc2-c2ccc(F)cc2)cc1` was tested, and the inhibition in vivo at 2 mg/kg (Mus musculus [1]) was 99%.
`CS(=O)(=O)c1ccc(-c2[nH]c(C(F)(F)F)nc2-c2ccccc2)cc1` gave an ED50 (Mus musculus [2]) of 0.38 mg/kg, an ED50 (Rattus norvegicus) of 0.16 mg/kg and an inhibition in vivo at 2 mg/kg (Mus musculus [3]) of 95%.
In the case of `CS(=O)(=O)c1ccc(-c2[nH]c(C(F)(F)F)nc2-c2ccc(Cl)c(Cl)c2)cc1`, the inhibition in vivo at 2 mg/kg (Mus musculus [1]) is reported as 84%.
For `CS(=O)(=O)c1ccc(-c2[nH]c(C(F)(F)F)nc2-c2ccc(F)c(F)c2)cc1`, the inhibition in vivo at 2 mg/kg (Mus musculus [1]) was 68%.
With `Cc1ccc(-c2[nH]c(C(F)(F)F)nc2-c2ccc(S(C)(=O)=O)cc2)cc1Cl` the inhibition in vivo at 2 mg/kg (Mus musculus [1]) was 0%.
For `Cc1c(F)cccc1-c1[nH]c(C(F)(F)F)nc1-c1ccc(S(C)(=O)=O)cc1`, the inhibition in vivo at 2 mg/kg (Mus musculus [1]) was 94%.
`CS(=O)(=O)c1ccc(-c2[nH]c(C(F)(F)F)nc2-c2cccc(F)c2)cc1` gave an inhibition in vivo at 2 mg/kg (Mus musculus [1]) of 92%.
Compound `CS(=O)(=O)c1ccc(-c2[nH]c(C(F)(F)F)nc2-c2ccc(Cl)cc2)cc1` has an inhibition in vivo at 2 mg/kg (Mus musculus [1]) of 86%.
For `Cc1ccc(-c2cc(C(F)(F)F)nn2-c2ccc(S(N)(=O)=O)cc2)cc1` [CELECOXIB], the ED50 (Rattus norvegicus) was 0.37 mg/kg and the ED50 (Mus musculus [1]) was 0.33 mg/kg.
